Assay results: US20020169175A1, “Pharmaceutically acceptable salts of heterocyclic compounds” (DR. REDDY'S LABORATORIES LTD., priority 2001, published 2002)
Counter-ions that a name gives are not always drawn.

Key:
[1] = test system: Swiss albino mice; assay: Plasma triglyceride and total cholesterol lowering activity in Swiss albino mice and Guinea pigs; type: in vivo, mouse; settings: oral, 6 days
Description: c) Plasma Triglyceride and Total Cholesterol Lowering Activity in Swiss Albino Mice and Guinea Pigs
Male Swiss albino mice (SAM) and male Guinea pigs were obtained from NIN and housed in DRF animal house. All these animals were maintained under 12 hour light and dark cycle at 25±1° C. Animals were given standard laboratory chow (NIN Hyderabad, India) and water, ad libitum. SAM of 20-25 g body weight range and Guinea pigs of 500-700 g body weight range were used (Oliver, P., Plancke, M. O., Marzin, D., Clavey, V., Sauzieres, J and Fruchart, J. C. Effects of fenofibrate, gemfibrozil and nicotinic acid on plasma lipoprotein levels in normal and hyperlipidemic mice. Atherosclerosis. 1988. 70: 107-114).
The test compounds were administered orally to Swiss albino mice at 0.3 to 30 mg/kg/day dose for 6 days. Control mice were treated with vehicle (0.25% Carboxymethylcellulose; dose 10 ml/kg). The test compounds were administered orally to Guinea pigs at 0.3 to 30 mg/kg/day dose for 6 days. Control animals were treated with vehicle (0.25% Carboxymethylcellulose; dose 5 ml/kg).
The blood samples were collected in fed state 1 hour after drug administration on 0 and 6 day of treatment. The blood was collected from the retro-orbital sinus through heparinised capillary in EDTA containing tubes. After centrifugation, plasma sample was separated for triglyceride and total cholesterol (Wieland, O. Methods of Enzymatic analysis. Bergermeyer, H. O., Ed., 1963. 211-214; Trinder, P. Ann. Clin. Biochem. 1969. 6: 24-27). Measurement of plasma triglyceride, total cholesterol and HDL were done using commercial kits (Dr. Reddy's Diagnostic Division, Hyderabad, India).
1. Percent reduction in Blood sugar/triglycerides/total cholesterol were calculated according to the formula: [formula]

[2] = Single dose oral pharmacokinetic studies in male Wistar rats; type: in vivo, rat; settings: fasted, suspension in 0.25% sodium CMC
Description: Single Dose Oral Pharmacokinetic Studies
Male Wistar rats (220-250 gm) were used in the experiments. The animals were maintained under standard laboratory conditions and had free access to feed and water ad libitum. Before experimentation animals were fasted overnight (˜15 h) during which they had free access to water ad libitum.
An amount equivalent to 30 mg of drug was weighed accurately and transferred into a clean mortar and triturated to obtain a fine powder. To this 0.5 ml of 0.25% sodium carboxy methyl cellulose (sodium CMC) was added to obtain a paste. To the obtained paste remaining 2.5 ml of sodium CMC was added to make up the volume to 3 ml. Based on the animal weight appropriate volume (body weight×3) of the prepared suspension was administered through oral gavage.
After dosing, at designated time points (0.5, 1, 2, 3, 5, 8, 12 and 24 h) 200 μl of blood was collected from retro orbital plexus into 0.5 ml eppendorff tubes containing EDTA (10 μl of 200 mg/ml solution in Milli Q water). Blood was centrifuged at 12,800 rpm for 5 min and obtained plasma and stored at −20° C. till further analysis.
100μl plasma was transferred into a clean and dry centrifuge tube. To this internal standard (10 μl of 100 μg/ml) was added and extracted with 2 ml of extraction recovery solvent. The contents were vortexed for 2 min, followed by centrifugation for 10 min at 2800 rpm. Clear organic layer (2×0.75 ml) was separated and dried under nitrogen gas at 50° C. The residue was reconstituted with 150 μl of mobile phase and vortexed for 20 sec, from this 50 μl was injected onto HPLC column.
Pharmacokinetic parameters were calculated by non-compartmental model analysis. The peak plasma concentration (Cmax) and the corresponding time (Tmax)were directly obtained from the raw data. The area under the plasma concentration versus time curve up to the last quantifiable time point, AUC(0−t) was obtained by the linear and log-linear trapezoidal summation. The AUC(0−t) extrapolated to infinity (i.e., AUC(0−∞)) by adding the quotient of Clast/Kel, where Clast represents the last measurable time concentration and Kel represents the apparent terminal rate constant. Kel was calculated by the linear regression of the log-transformed concentrations of the drug in the terminal phase. The half-life of the terminal elimination phase was obtained using the relationship t½=0.693/Kel.

[3] = target: T1, hPPARα (Homo sapiens, UniProt Q07869); assay: Determination of hPPARα activity (GAL4 fusion luciferase reporter in transfected HEK-293 cells); type: cell-based; settings: compound concentration 50 μM
T1 construct: expressed in transfected cells; host or cells: HEK-293
T1 sequence (Q07869 239-466 limits assumed): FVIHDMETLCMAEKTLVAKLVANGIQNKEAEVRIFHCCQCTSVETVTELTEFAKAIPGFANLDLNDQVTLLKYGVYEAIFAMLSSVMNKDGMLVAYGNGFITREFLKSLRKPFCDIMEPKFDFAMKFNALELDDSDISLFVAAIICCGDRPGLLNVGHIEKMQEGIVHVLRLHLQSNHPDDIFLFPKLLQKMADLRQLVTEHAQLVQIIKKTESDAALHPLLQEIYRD
Description: a) Determination of hPPARα Activity
Ligand binding domain of hPPARα was fused to DNA binding domain of Yeast transcription factor GAL4 in eucaryotic expression vector. Using superfect (Qiagen, Germany) as transfecting reagent HEK-293 cells were transfected with this plasmid and a reporter plasmid harboring the luciferase gene driven by a GAL4 specific promoter. Compound was added at different concentrations after 42 hrs of transfection and incubated overnight. Luciferase activity as a function of compound binding/activation capacity of PPARα was measured using Packard Luclite kit (Packard, USA) in Top Count (Ivan Sadowski, Brendan Bell, Peter Broag and Melvyn Hollis. Gene. 1992. 118: 137-141; Superfect Transfection Reagent Handbook. February 1997. Qiagen, Germany).

[4] = target: T2, hPPARγ1 (Homo sapiens, UniProt P37231); assay: Determination of hPPARγ activity (GAL4 fusion luciferase reporter in transfected HEK-293 cells); type: cell-based; settings: compound concentration 1 μM
T2 construct: expressed in transfected cells; host or cells: HEK-293
T2 sequence (P37231 238-503 limits assumed): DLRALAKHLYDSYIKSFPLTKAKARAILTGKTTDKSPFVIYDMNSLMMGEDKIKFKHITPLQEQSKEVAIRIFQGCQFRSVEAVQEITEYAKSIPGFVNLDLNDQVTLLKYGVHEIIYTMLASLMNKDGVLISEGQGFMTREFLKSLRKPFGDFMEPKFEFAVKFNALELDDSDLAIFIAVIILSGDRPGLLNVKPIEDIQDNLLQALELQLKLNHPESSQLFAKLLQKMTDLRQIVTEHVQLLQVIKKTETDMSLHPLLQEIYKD
Description: b) Determination of hPPARγ Activity
Ligand binding domain of hPPARγ1 was fused to DNA binding domain of Yeast transcription factor GAL4 in eucaryotic expression vector. Using lipofectamine (Gibco BRL, USA) as transfecting reagent HEK-293 cells were transfected with this plasmid and a reporter plasmid harboring the luciferase gene driven by a GAL4 specific promoter. Compound was added at 1 μM concentration after 48 hrs of transfection and incubated overnight. Luciferase activity as a function of drug binding/activation capacity of PPARγ1 was measured using Packard Luclite kit (Packard, USA) in Packard Top Count (Ivan Sadowski, Brendan Bell, Peter Broag and Melvyn Hollis. Gene. 1992. 118: 137-141; Guide to Eukaryotic Transfections with Cationic Lipid Reagents. Life Technologies, GIBCO BRL, USA).

Structure (SMILES)	Triglyceride Lowering (%) ([1]; dose 3 mg/kg)	PPARα [3]	PPARγ [4]	also measured
CCCc1nn(C)c2c(=O)n(CCOc3ccc(CC(OCC)C(=O)[O-])cc3)c(CC)nc12.CCCc1nn(C)c2c(=O)n(CCOc3ccc(CC(OCC)C(=O)[O-])cc3)c(CC)nc12.[Mg+2] (single isomer, unassigned; (-)) [Example 31, (−)-3-[4-[2-(1-Methyl-5-ethyl-7-oxo-3-propyl-6,7-dihydro-1H-pyrazolo[4,3-d]pyrimidin-6-yl)ethoxy]phenyl]-2-ethoxypropionic acid magnesium salt]	84%			AUC (0-∞) [2]: 65930 ng·h/mL; AUC(0-t) [2]: 64700 ng·h/mL; Cmax [2]: 19150 ng/mL; Kel [2]: 0.34 h⁻¹; Tmax [2]: 2.75 h; t½ [2]: 2.24 h
CCCc1nn(C)c2c(=O)n(CCOc3ccc(C[C@H](OCC)C(=O)O)cc3)c(CC)nc12 [Example 38, (−)-3-[4-[2-(1-Methyl-5-ethyl-7-oxo-3-propyl-6,7-dihydro-1H-pyrazolo[4,3-d]pyrimidin-6-yl)ethoxy]phenyl]-2-ethoxypropionic acid S-(+)-phenylglycinol salt]		3.3	12.0	
CCCc1nn(C)c2c(=O)n(CCOc3ccc(C[C@H](OCC)C(=O)O)cc3)c(C)nc12 [Example 23, 3-[4-[2-(1,5-Dimethyl-7-oxo-3-propyl-6,7-dihydro-1H-pyrazolo[4,3-d]pyrimidin-6-yl)ethoxy]phenyl]-2-ethoxypropionic acid S-(+)-phenylglycinol salt]		3.4	11.5	
CCO[C@@H](Cc1ccc(OCCn2c(CC)nc3ccccc3c2=O)cc1)C(=O)O [Example 3, (−)-3-[4-[2-(2-Ethyl-4-oxo-3,4-dihydroquinazolin-3-yl)ethoxy]phenyl]-2-ethoxypropanoic acid dicyclohexylamine salt]	81%			
CCCc1nn(C)c2c(=O)n(CCOc3ccc(C[C@H](OCC)C(=O)O)cc3)c(CC)nc12 [Example 36, (−)-3-[4-[2-(1-Methyl-5-ethyl-7-oxo-3-propyl-6,7-dihydro-1H-pyrazolo[4,3-d]pyrimidin-6-yl)ethoxy]phenyl]-2-ethoxypropionic acid arginine salt]			11.4	
CCCc1nn(C)c2c(=O)n(CCOc3ccc(C[C@H](OCC)C(=O)O)cc3)c(CC)nc12 [Example 45, (−)-3-[4-[2-(1-Methyl-5-ethyl-7-oxo-3-propyl-6,7-dihydro-1H-pyrazolo[4,3-d]pyrimidin-6-yl)ethoxy]phenyl]-2-ethoxypropionic acid Lysine salt]	81%			AUC (0-∞) [2]: 101290 ng·h/mL; AUC(0-t) [2]: 99330 ng·h/mL; Cmax [2]: 24220 ng/mL; Kel [2]: 0.42 h⁻¹; Tmax [2]: 2.38 h; t½ [2]: 1.72 h
CCCc1nn(C)c2c(=O)n(CCOc3ccc(CC(OCC)C(=O)[O-])cc3)c(C)nc12.CCCc1nn(C)c2c(=O)n(CCOc3ccc(CC(OCC)C(=O)[O-])cc3)c(C)nc12.[Mg+2] (stereo not drawn) [Example 16, 3-[4-[2-(1,5-Dimethyl-7-oxo-3-propyl-6,7-dihydro-1H-pyrazolo[4,3-d]pyrimidin-6-yl)ethoxy]phenyl]-2-ethoxypropionic acid magnesium salt]		3.4	13.5	
CCCc1nn(C)c2c(=O)n(CCOc3ccc(C[C@H](OCC)C(=O)O)cc3)c(CC)nc12 [Example 44, (−)-3-[4-[2-(1-Methyl-5-ethyl-7-oxo-3-propyl-6,7-dihydro-1H-pyrazolo[4,3-d]pyrimidin-6-yl)ethoxy]phenyl]-2-ethoxypropionic acid metformin salt]	80%	2.5		
CCO[C@@H](Cc1ccc(OCCn2c(CC)nc3ccccc3c2=O)cc1)C(=O)O [Example 1, (−)-3-[4-[2-(2-Ethyl-4-oxo-3,4-dihydroquinazolin-3-yl)ethoxy]phenyl]-2-ethoxypropanoic acid phenyl glycinol salt]	87%			
CCO[C@@H](Cc1ccc(OCCn2c(N=[N+]=[N-])nc3ccccc3c2=O)cc1)C(=O)O [Example 12, (−)-3-[4-[2-(2-Azido-4-oxo-3,4-dihydroquinazolin-3-yl)ethoxy]phenyl]-2-ethoxypropanoic acid magnesium salt]				Triglyceride Lowering (%) ([1]; dose 0.3 mg/kg): 37%
CCCc1nn(C)c2c(=O)n(CCOc3ccc(C[C@H](OCC)C(=O)O)cc3)c(CC)nc12 [Example 41, (−)-3-[4-[2-(1-Methyl-5-ethyl-7-oxo-3-propyl-6,7-dihydro-1H-pyrazolo[4,3-d]pyrimidin-6-yl)ethoxy]phenyl]-2-ethoxypropionic acid dicyclohexylamine salt]		3.1	13.0	
CCCc1nn(C)c2c(=O)n(CCOc3ccc(C[C@H](OCC)C(=O)[O-])cc3)c(C)nc12.[Na+] [Example 20, 3-[4-[2-(1,5-Dimethyl-7-oxo-3-propyl-6,7-dihydro-1H-pyrazolo[4,3-d]pyrimidin-6-yl)ethoxy]phenyl]-2-ethoxypropionic acid sodium salt]		3.5	13.0	
